Test results as given in patent US4230712A, “7-Methyl-8β-lower alkyl or 7-methyl-8-lower alkyl B/C cis or trans morphinan-6-one compounds and therapeutic method of treating pain employing them” (Miles Laboratories, Inc., priority 1978, dated 1980).
Counter-ions that a name gives are not always drawn.

Columns and labels:
[1] = test system: rats; assay: narcotic antagonist activity, modified rat tail flick test against morphine; assay type: in vivo, male albino Wistar rats; parameters: AD50: unit not given here; conditions: rat tail flick, dose inhibiting the morphine (ED80 dose s.c.) effect by 50%; IA @ dose = inactive at that dose
Experimental: (B) Narcotic antagonist activity in rats (modified rat tail flick test).
TEST B. EVALUATION OF NARCOTIC ANTAGONIST ACTIVITY
The narcotic antagonist effects of test compounds were determined by a modification of the rat tail flick procedure of Harris and Pierson (J. Pharmacol. Exp. Ther. 143:141 [1964]).
Male albino Wistar rats (100-120 g) were used for this study. A rat's tail is so placed so as to cover a photocell. Heat is applied by a lamp in a reflector with a timer being connected to the lamp and photocell so that the timer goes on when the light is turned on and is turned off when the photocell is uncovered. A rheostat, incorporated into a heating lamp is used to adjust the intensity of the light falling on the tail of the rat such that the rat's control reaction time is from two to four seconds. Animals with a control reaction time outside this range are rejected. The rheostat adjustment is made only if a significant proportion (more than 2 out of every 10 rats) of the reaction times are outside the range of two to four seconds. Groups of five rats were used each time, and two control times were determined at 60 and 30 minutes prior to subcutaneous injection of the drug.
Thirty minutes after the last control run the test drug was given intraperitoneally. This was followed ten minutes later by an ED80 dose of morphine subcutaneously. The animals were retested at 20 minutes after the morphine injection. Control animals were given vehicle and morphine only. The data were calculated as follows: [formula]
The data were plotted on log-probit paper and AD50 values, i.e., the dose required to inhibit the morphine effect by 50% within 95% confidence limits, were determined by the method of Litchfield and Wilcoxon.

[2] = charcoal meal test with attempted naloxone reversal; assay type: in vivo
[3] = test system: mice; assay: acetic acid mouse writhing test (analgesic effect, s.c.); assay type: in vivo, male CD-1 mice; conditions: sc; mouse acetic acid writhing, s.c., dose reducing the number of writhes by 50%; IA @ dose = inactive at that dose; read-out: ED50
Experimental: (A) Analgesic effects upon mice (acetic acid writhing test).
TEST A. ACETIC ACID MOUSE WRITHING TEST
The analgesic effects of test compounds were determined in mice by use of the acetic acid writhing test described by B. J. R. Whittle, Brit. J. Pharmacol., 22:246 (1964). In this test at least three groups of five male CD-1 mice (18-22 g) each were given subcutaneous doses of the test drug dissolved in either distilled water or distilled water acidified with HCl depending on the solubility of the compound. In all cases, 0.4 milliliter of a 0.5% V/V acetic acid in distilled water solution was administered intraperitoneally 15 minutes post drug. The number of writhes in a 20 min. interval beginning 5 minutes after the acetic acid injection were determined and compared with the number of writhes in control groups which had received only acetic acid.
Percent inhibition of writhing was calculated as: [formula]
The ED50 dose, i.e., the dose required to reduce the number of writhes by 50%, was determined graphically from a plot of % inhibition as a probit versus log dose. Confidence limits of 95% were calculated on the basis of those results falling in the range 16-84% inhibition. See Litchfield, J. T. and Wilcoxon, F., J. Pharmacol. Exp. Ther., 96, 99-113, (1949).

With C[C@H]1C[C@H]2[C@H]3Cc4ccc(O)cc4[C@@]2(CCN3CC2CC2)CC1=O.Cl [TR-5177, 17-Cyclopropylmethyl-3-hydroxy-7α-methylmorphinan-6-one Hydrochloride] the AD50 [1] was 5.2, the “action in charcoal meal test upon attempted naloxone reversal” value ([2]; attempted reversal with naloxone, Hydrochloride) was “novel action in charcoal meal test upon attempted naloxone reversal” and the “duration of action suggested by charcoal meal test” value ([2]; inferred from novel action upon attempted naloxone reversal) was “may have a longer duration of action than would be expected”. It also gave an ED50 [3] of 0.87 mg/kg.
For COc1ccc2c(c1)[C@]13CCN(CC4CC4)[C@H](C2)[C@H]1C[C@@H](C)C(=O)C3 [TR-5205, 17-Cyclopropylmethyl-3-methoxy-7β-methyl-isomorphinan-6-one Hydrochloride], the AD50 [1] was 1.2 and the ED50 [3] was > 15 mg/kg.
